# Assay results from ChEMBL document CHEMBL6127154, “Pursuing Polypharmacology: Benzothiopyranoindoles as G-Quadruplex Stabilizers and Topoisomerase I Inhibitors for Effective Anticancer Strategies” (ACS Med Chem Lett, 2024).
# Calls of active or inactive are those of the source. The rule behind the calls is not given here.
# Experiments:
# HCT-116 [1] = experiment: Induction of DNA damage in human HCT-116 cells assessed as increase in gammaH2AX level incubated for 24 hrs by immunofluorescence staining based analysis; assay type: functional, cell-based
# HCT-116 [2] = experiment: Induction of DNA damage in human HCT-116 cells assessed as increase in 53BP1 foci positive cells incubated for 24 hrs by immunofluorescence staining based analysis; assay type: functional, cell-based
# Quadruplex DNA [3] = experiment: Thermal stabilization of human c-Myc G4 quadruplex DNA assessed as change in melting temperature (deltaT1/2) incubated for 10 mins by circular dichroism spectroscopic analysis (reference value: 70.5 +/- 0.1 degreeC); assay type: nucleic-acid assay
# Quadruplex DNA [4] = experiment: Thermal stabilization of human Tel23-p G4 quadruplex DNA assessed as change in melting temperature (deltaT1/2) incubated for 10 mins by circular dichroism spectroscopic analysis (reference value: 68.2 +/- 0.1 degreeC); assay type: nucleic-acid assay
# Quadruplex DNA [5] = experiment: Thermal stabilization of human c-Kit2 G4 quadruplex DNA assessed as change in melting temperature (deltaT1/2) incubated for 10 mins by circular dichroism spectroscopic analysis (reference value: 62.4 +/-0.1 degreeC); assay type: nucleic-acid assay
# Quadruplex DNA [6] = experiment: Thermal stabilization of human Tel26-hy G4 quadruplex DNA assessed as change in melting temperature (deltaT1/2) incubated for 10 mins by circular dichroism spectroscopic analysis (reference value: 55.4 +/- 0.1 degreeC); assay type: nucleic-acid assay
# Quadruplex DNA [7] = experiment: Thermal stabilization of human Tel23-hy G4 quadruplex DNA assessed as change in melting temperature (deltaT1/2) incubated for 10 mins by circular dichroism spectroscopic analysis (reference value: 48 +/- 0.1 degreeC); assay type: nucleic-acid assay
Compound,Activity (HCT-116 [1]),Activity (HCT-116 [2]),ΔTm (Quadruplex DNA [3]) [°C],ΔTm (Quadruplex DNA [4]) [°C],ΔTm (Quadruplex DNA [5]) [°C],ΔTm (Quadruplex DNA [6]) [°C],ΔTm (Quadruplex DNA [7]) [°C]
CC[C@@]1(O)C(=O)OCc2c1cc1n(c2=O)Cc2cc3ccccc3nc2-1,Active,Active,–,–,–,–,–
COc1ccc2cc3[n+](cc2c1OC)CCc1cc2c(cc1-3)OCO2,–,–,15.5,> 20,> 20,6.8,12.7
